From article PMC11062899, “De novo development of small cyclic peptides that are orally bioavailable” (Nature Chemical Biology, 2023)
Values joined by “and” are separate entries in the source; they are usually repeats but may differ in a detail not shown here. Equal values may be shown once.

Tests used:
[1] = Peptide stability in simulated intestinal fluid (SIF); type: in vitro ADME, porcine; details: simulated gi fluid; 8 h, 37 °C, pH 6.8; read-out: Proteolytic stability: SIF (8 h) % remaining
In short: (§1)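 Peptide from a 1 mM DMSO stock was added to fluid pre-warmed at 37 °C. SGF was pH 1.2 NaCl with porcine pepsin (0.32 g per 100 ml), and SIF was pH 6.8 potassium phosphate with porcine pancreatin (1 g per 100 ml). Supernatant peptide was quantified by LC–MS, with residual expressed as T1/T0.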

[2] = tested on: porcine pancreatin; experiment: as above; type: in vitro ADME; details: after 8 h vs 0 h (TIC); for SIF stability, Residual peptide Average: average of R1-R3
In short: as §1

[3] = target: T1, porcine pepsin (Sus scrofa, UniProt P00791); experiment: Peptide stability in simulated gastric fluid (SGF); type: in vitro ADME; details: for SGF stability, Residual peptide Average / SGF stability, Residual peptide: after 8 h vs 0 h (TIC); for SGF stability, Residual peptide Average: average of R1-R3; for SGF stability, Residual peptide: single replicates R1-R3; for remaining at 8 h: simulated gi fluid, 37 °C, pH 1.2, read-out: Proteolytic stability: SGF (8 h) % remaining
T1 construct: 0.32 g of porcine pepsin (Sigma-Aldrich, P7125) was dissolved under gentle agitation; purchased Sigma-Aldrich P7125
T1 sequence (P00791 60-385): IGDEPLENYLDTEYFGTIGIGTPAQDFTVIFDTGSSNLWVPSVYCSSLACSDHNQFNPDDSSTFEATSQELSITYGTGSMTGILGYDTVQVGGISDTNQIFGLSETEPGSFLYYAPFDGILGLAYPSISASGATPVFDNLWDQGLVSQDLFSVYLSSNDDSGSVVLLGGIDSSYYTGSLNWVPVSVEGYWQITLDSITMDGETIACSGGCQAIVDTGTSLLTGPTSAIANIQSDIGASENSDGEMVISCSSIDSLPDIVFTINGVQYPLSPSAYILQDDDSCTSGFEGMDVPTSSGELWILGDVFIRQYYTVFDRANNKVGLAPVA
In short: as §1

[4] = target: human α-thrombin (Homo sapiens, UniProt P00734); experiment: Protease inhibition, Ki for human α-thrombin (fluorogenic substrate Z-Gly-Gly-Arg-AMC); type: biochemical; details: replicates R1-R3
In short: (§2)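 Inhibition was measured as AMC fluorescence from 50 μM substrate, monitored for 30 min at 25 °C, relative to a peptide-free control. Human and rat enzymes were present at 2 nM and 3 nM final, respectively, in 50 mM Tris-HCl pH 7.4, 150 mM NaCl, 10 mM MgCl2, 1 mM CaCl2. Ki derives from fitted IC50 via Cheng–Prusoff.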

[5] = target: T2, rat α-thrombin (Rattus norvegicus, UniProt P18292); experiment: Protease inhibition, Ki for rat α-thrombin (fluorogenic substrate Z-Gly-Gly-Arg-AMC); type: biochemical; details: replicates R1-R3
T2 construct: rat α-thrombin (Molecular Innovations) were used at final concentrations of 2 nM and 3 nM; purchased Molecular Innovations
In short: as §2

[6] = Metabolic stability in rat liver microsomes (RLMs); details: rat, microsomes
Description: Metabolic stability was measured by incubating the peptides (10 μM) with RLMs. Peptides to test were dissolved in DMSO (4 mM), and 1 μl of the resulting solution was added to 365 μl of 0.1 M sodium phosphate buffer (pH 7.4). The solution was pre-warmed at 37 °C for 5 min before starting the reaction by addition of 24 μl of NADPH cofactor solution (22 mM) and 11 μl of RLMs (20 mg ml^−1 protein concentration; Thermo Fisher Scientific, RTMCPL). […] Samples were vortexed, sonicated for 5 min and centrifuged at 16,000g for 10 min. Supernatant was analyzed by LC–MS to quantify the disappearance of the compound and formation of degradation products.

[7] = Passive artificial membrane permeability (PAMPA); details: for PAMPA permeability: % permeability: 50 μM, 12–18 h, acceptor concentration relative to equilibrium; for Papp at 50 μM / Permeability% Average / Permeability% R1 / Permeability% R3: PAMPA; for Papp at 50 μM: pH 7.4; for Permeability% Average: average of R1-R3; for Permeability% R1: replicate R1; for Permeability% R1 / Permeability% R3: TIC of top well sample relative to sample at theoretical equilibrium; for Permeability% R3: replicate R3
[8] = peptide 1.33E+02 uM, slope of proteolytic substrate cleavage over time
[9] = CL (ul/min/mg protein) R1, RLM CL, replicate R1
[10] = CL (ul/min/mg protein) R2, RLM CL, replicate R2
[11] = CL (ul/min/mg protein) R3, RLM CL, replicate R3
[12] = Half Life (min) R1, RLM metabolic stability, replicate R1, 0-60 min
[13] = Half Life (min) R2, RLM metabolic stability, replicate R2, 0-60 min
[14] = Half Life (min) R3, RLM metabolic stability, replicate R3, 0-60 min
[15] = Metabolic stability: Half life T1/2 (min), RLMs, mean and SD, three measurements
[16] = Metabolic stability: RLM CL (ul/min/mg), RLMs, mean and SD, three measurements

For `O=C(N[C@H]1CSCCS(=O)(=O)CCSCCNC(=O)C2(CC2)CNC(=O)[C@H](Cc2ccccc2)NC1=O)c1ccc(Cl)s1` [compound 16], the remaining at 8 h [1] was 6.3 ± 1.9%, the “SIF stability, Residual peptide Average” value [2] was 6.32 and the “SGF stability, Residual peptide Average” value [3] was 98.52. The “SGF stability, Residual peptide” value [3] was 104.99 and 99.11 and 91.47, the remaining at 8 h [3] was 99 ± 7% and the “Human alpha thrombin inhibition, slope normalized to DMSO” value ([4]; peptide 1.02E-03 uM) was 95.7 (2×) and 101.7. For the same molecule, the “Human alpha thrombin inhibition, slope normalized to DMSO” value ([4]; peptide 1.04E+00 uM) was 62.0 and 61.5 and 59.7, the “Human alpha thrombin inhibition, slope normalized to DMSO” value ([4]; peptide 1.27E-04 uM) was 99.4 and 101.3 and 98.3 and the “Human alpha thrombin inhibition, slope normalized to DMSO” value ([4]; peptide 1.30E-01 uM) was 89.0 and 89.6 and 91.9. For the same molecule, the “Human alpha thrombin inhibition, slope normalized to DMSO” value [4, 8] was 4.8 and 2.4 and 6.7, the “Human alpha thrombin inhibition, slope normalized to DMSO” value ([4]; peptide 1.63E-02 uM) was 103.7 and 97.9 and 94.4 and the “Human alpha thrombin inhibition, slope normalized to DMSO” value ([4]; peptide 1.67E+01 uM) was -1.3 and 11.2 and 10.7. For the same molecule, the “Human alpha thrombin inhibition, slope normalized to DMSO” value ([4]; peptide 2.03E-03 uM) was 102.2 and 96.9 and 97.7, the “Human alpha thrombin inhibition, slope normalized to DMSO” value ([4]; peptide 2.08E+00 uM) was 40.1 and 46.6 and 47.4 and the “Human alpha thrombin inhibition, slope normalized to DMSO” value ([4]; peptide 2.54E-04 uM) was 100.3 and 97.2 and 96.3. For the same molecule, the “Human alpha thrombin inhibition, slope normalized to DMSO” value ([4]; peptide 2.60E-01 uM) was 83.3 and 73.2 and 85.9, the “Human alpha thrombin inhibition, slope normalized to DMSO” value ([4]; peptide 3.18E-05 uM) was 101.8 and 98.5 and 103.1 and the “Human alpha thrombin inhibition, slope normalized to DMSO” value ([4]; peptide 3.26E-02 uM) was 95.9 and 94.2 and 94.5. The “Human alpha thrombin inhibition, slope normalized to DMSO” value ([4]; peptide 3.33E+01 uM) was 6.5 (2×) and 8.7, the “Human alpha thrombin inhibition, slope normalized to DMSO” value ([4]; peptide 4.07E-03 uM) was 101.7 and 97.8 and 102.2 and the “Human alpha thrombin inhibition, slope normalized to DMSO” value ([4]; peptide 4.17E+00 uM) was 27.0 and 27.6 and 28.2. The “Human alpha thrombin inhibition, slope normalized to DMSO” value ([4]; peptide 5.09E-04 uM) was 97.5 and 98.8 and 97.2, the “Human alpha thrombin inhibition, slope normalized to DMSO” value ([4]; peptide 5.21E-01 uM) was 78.3 and 65.6 and 76.6 and the “Human alpha thrombin inhibition, slope normalized to DMSO” value ([4]; peptide 6.36E-05 uM) was 105.9 and 99.3 and 96.8. The “Human alpha thrombin inhibition, slope normalized to DMSO” value ([4]; peptide 6.51E-02 uM) was 92.3 and 91.0 and 94.1, the “Human alpha thrombin inhibition, slope normalized to DMSO” value ([4]; peptide 6.67E+01 uM) was 5.1 and 4.9 and 7.0 and the “Human alpha thrombin inhibition, slope normalized to DMSO” value ([4]; peptide 8.14E-03 uM) was 97.0 (2×) and 91.0. For the same molecule, the “Human alpha thrombin inhibition, slope normalized to DMSO” value ([4]; peptide 8.33E+00 uM) was 19.7 and 13.2 and 20.2, the “Rat alpha thrombin inhibition, slope normalized to DMSO” value [5, 8] was 3.3 and 2.8 and 2.1 and the “Rat alpha thrombin inhibition, slope normalized to DMSO” value ([5]; peptide 1.67E+01 uM) was 6.6 and 5.4 and 5.1. For the same molecule, the “Rat alpha thrombin inhibition, slope normalized to DMSO” value ([5]; peptide 2.08E+00 uM) was 33.9 and 33.4 and 32.2, the “Rat alpha thrombin inhibition, slope normalized to DMSO” value ([5]; peptide 3.33E+01 uM) was 4.4 and 3.4 and 3.5 and the “Rat alpha thrombin inhibition, slope normalized to DMSO” value ([5]; peptide 4.17E+00 uM) was 19.8 and 18.5 and 18.4. For the same molecule, the “Rat alpha thrombin inhibition, slope normalized to DMSO” value ([5]; peptide 6.67E+01 uM) was 3.3 and 1.7 and 2.4, the “Rat alpha thrombin inhibition, slope normalized to DMSO” value ([5]; peptide 8.33E+00 uM) was 11.8 and 11.2 and 10.2 and the microsomal CLint [6, 9] was 61 µL/min/mg. For the same molecule, the microsomal CLint [6, 10] was 51.4 µL/min/mg, the microsomal CLint [6, 11] was 62.2 µL/min/mg and the half-life [6, 12] was 22.7 min. For the same molecule, the half-life [6, 13] was 26.9 min, the half-life [6, 14] was 22.3 min and the half-life [6, 15] was 24 ± 2 min. The microsomal CLint [6, 16] was 58 ± 5 µL/min/mg, the “PAMPA permeability: % permeability” value [7] was 8.6 ± 3.0% and the Papp at 50 μM [7] was 0.575 ×10⁻⁶ cm/s. For the same molecule, the “Permeability% Average” value [7] was 8.6%, the “Permeability% R1” value [7] was 11.91% and the “Permeability% R3” value [7] was 7.66%.

With `O=C1CCSCc2ccc(cc2)CSCCNC(=O)[C@H](CNC(=O)c2ccc(Cl)s2)NC(=O)[C@H](Cc2ccccn2)N1` [compound 21] the remaining at 8 h [1] was 73 ± 14%, the “SIF stability, Residual peptide Average” value [2] was 72.44 and the “SIF stability, Residual peptide” value ([2]; single replicates R1-R3) was 71.05 and 59.57 and 86.70. The “SGF stability, Residual peptide Average” value [3] was 96.77, the “SGF stability, Residual peptide” value [3] was 95.02 and 96.82 and 98.46 and the remaining at 8 h [3] was 97 ± 2%. For the same molecule, the “Human alpha thrombin inhibition, slope normalized to DMSO” value ([4]; peptide 1.02E-03 uM) was 103.5 and 98.1 and 102.6, the “Human alpha thrombin inhibition, slope normalized to DMSO” value ([4]; peptide 1.04E+00 uM) was 51.0 and 46.3 and 53.8 and the “Human alpha thrombin inhibition, slope normalized to DMSO” value ([4]; peptide 1.27E-04 uM) was 101.6 (2×) and 101.3. For the same molecule, the “Human alpha thrombin inhibition, slope normalized to DMSO” value ([4]; peptide 1.30E-01 uM) was 84.8 and 85.3 and 87.8, the “Human alpha thrombin inhibition, slope normalized to DMSO” value [4, 8] was 2.9 and 4.3 and 7.1 and the “Human alpha thrombin inhibition, slope normalized to DMSO” value ([4]; peptide 1.63E-02 uM) was 94.6 and 91.7 and 97.3. For the same molecule, the “Human alpha thrombin inhibition, slope normalized to DMSO” value ([4]; peptide 1.67E+01 uM) was 6.9 and 8.0 and 8.2, the “Human alpha thrombin inhibition, slope normalized to DMSO” value ([4]; peptide 2.03E-03 uM) was 83.6 and 95.2 and 99.1 and the “Human alpha thrombin inhibition, slope normalized to DMSO” value ([4]; peptide 2.08E+00 uM) was 39.4 and 34.7 and 41.2. For the same molecule, the “Human alpha thrombin inhibition, slope normalized to DMSO” value ([4]; peptide 2.54E-04 uM) was 100.6 and 99.2 and 101.0, the “Human alpha thrombin inhibition, slope normalized to DMSO” value ([4]; peptide 2.60E-01 uM) was 69.7 and 83.0 and 22.1 and the “Human alpha thrombin inhibition, slope normalized to DMSO” value ([4]; peptide 3.18E-05 uM) was 102.2 and 99.2 and 102.0. The “Human alpha thrombin inhibition, slope normalized to DMSO” value ([4]; peptide 3.26E-02 uM) was 94.2 and 94.0 and 90.4, the “Human alpha thrombin inhibition, slope normalized to DMSO” value ([4]; peptide 3.33E+01 uM) was 5.8 (2×) and 6.2 and the “Human alpha thrombin inhibition, slope normalized to DMSO” value ([4]; peptide 4.07E-03 uM) was 90.8 and 94.4 and 95.3. The “Human alpha thrombin inhibition, slope normalized to DMSO” value ([4]; peptide 4.17E+00 uM) was 22.8 and 22.7 and 20.6, the “Human alpha thrombin inhibition, slope normalized to DMSO” value ([4]; peptide 5.09E-04 uM) was 101.7 and 100.4 and 99.5 and the “Human alpha thrombin inhibition, slope normalized to DMSO” value ([4]; peptide 5.21E-01 uM) was 67.4 and 67.9 and 63.6. For the same molecule, the “Human alpha thrombin inhibition, slope normalized to DMSO” value ([4]; peptide 6.36E-05 uM) was 101.4 and 100.0 and 102.5, the “Human alpha thrombin inhibition, slope normalized to DMSO” value ([4]; peptide 6.51E-02 uM) was 98.0 and 95.1 and 90.8 and the “Human alpha thrombin inhibition, slope normalized to DMSO” value ([4]; peptide 6.67E+01 uM) was 5.7 and 4.5 and 9.4. The “Human alpha thrombin inhibition, slope normalized to DMSO” value ([4]; peptide 8.14E-03 uM) was 81.7 and 101.4 and 94.1, the “Human alpha thrombin inhibition, slope normalized to DMSO” value ([4]; peptide 8.33E+00 uM) was 13.3 and 14.1 and 15.9 and the “Rat alpha thrombin inhibition, slope normalized to DMSO” value [5, 8] was 2.7 and 0.9 and 1.3. For the same molecule, the “Rat alpha thrombin inhibition, slope normalized to DMSO” value ([5]; peptide 1.67E+01 uM) was 3.2 and 2.7 and 2.4, the “Rat alpha thrombin inhibition, slope normalized to DMSO” value ([5]; peptide 2.08E+00 uM) was 15.0 and 14.2 (2×) and the “Rat alpha thrombin inhibition, slope normalized to DMSO” value ([5]; peptide 3.33E+01 uM) was 3.0 and 2.9 and 1.6. For the same molecule, the “Rat alpha thrombin inhibition, slope normalized to DMSO” value ([5]; peptide 4.17E+00 uM) was 8.4 and 7.9 and 15.6, the “Rat alpha thrombin inhibition, slope normalized to DMSO” value ([5]; peptide 6.67E+01 uM) was 2.7 and 2.1 and 0.8 and the “Rat alpha thrombin inhibition, slope normalized to DMSO” value ([5]; peptide 8.33E+00 uM) was 4.8 and 3.7 and 3.3. It also gave a microsomal CLint [6, 9] of 102 µL/min/mg, a microsomal CLint [6, 10] of 60.2 µL/min/mg and a microsomal CLint [6, 11] of 85 µL/min/mg. For the same molecule, the half-life [6, 12] was 13.6 min, the half-life [6, 13] was 23 min and the half-life [6, 14] was 16.3 min. The half-life [6, 15] was 17.6 ± 4 min, the microsomal CLint [6, 16] was 82 ± 17 µL/min/mg and the “PAMPA permeability: % permeability” value [7] was 17 ± 5%. For the same molecule, the Papp at 50 μM [7] was 1.2 ×10⁻⁶ cm/s, the “Permeability% Average” value [7] was 17.0% and the “Permeability% R1” value [7] was 13.02%. The “Permeability% R3” value [7] was 21.96%.
